Source: article PMC10046961, “High-Throughput Screening Assay for Detecting Drug-Induced Changes in Synchronized Neuronal Oscillations and Potential Seizure Risk Based on Ca^2+ Fluorescence Measurements in Human Induced Pluripotent Stem Cell (hiPSC)-Derived Neuronal 2D and 3D Cultures” (Cells, 2023)
Like-named read-outs stand apart in the source and are kept apart here.

Tests used:
[1] = tested on: hiPSC-derived neurons co-cultured with human primary astrocytes in 3D; assay: Ca2+ transient oscillation assay (FDSS), 3D spheroids; assay type: cell-based; settings: 60 min
Procedure, shortened: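 Fura-2 fluorescence was read twice for 20 min each: a baseline 10 min after 0.04% DMSO, and again 60 min after compound addition at nominal final concentration. The 3D co-cultures (1:1 hiPSC neurons from a donor and human astrocytes, 8000 each) matured 5 weeks in BrainPhys medium after a 1-week differentiation.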

[2] = ref PharmaPendium, cited from earlier work
[3] = tested on: hiPSC-derived neurons co-cultured with human primary astrocytes in 2D; assay: Ca2+ transient oscillation assay (FDSS), 2D co-culture; assay type: cell-based; settings: for activation at 3.7 µM / activation at 11.11 µM / activation at 33.33 µM / activation at 100 µM / activation at 0.11 µM / activation at 0.33 µM / activation at 1 µM / activation at 3 µM: Homo sapiens, 1 h, 60 min
Procedure, shortened: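 Cultures were 10,000 CW50065 hiPSC excitatory neurons plus 2500 primary human astrocytes per well. Recordings used Cal-520 dye in HBSS/HEPES/glucose at 37 °C, with a 470/540 nm read at 2 Hz. Oscillations were stabilized with 0.04% DMSO, read for 20 min, then read again 60 min after compound addition (final DMSO 0.1%).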

[4] = Table 1, peak plasma concentration in men, free therapeutic Cmax
[5] = Table 2, highest plasma concentration in humans after the therapeutic dose
[6] = read-out: Area under the curve - 2D Mean
[7] = read-out: Peak amplitude - 2D Mean
[8] = read-out: Peak-to-peak interval - 2D Mean

O=C1NC(=O)C(c2ccccc2)(c2ccccc2)N1 [Phenytoin]
Area under the curve - 3D Mean ([1]; 3.7 µM): 132.1 % change from baseline
Peak Number—3D Mean ([1]; 3.7 µM): 1.4 % change from baseline
Peak amplitude - 3D Mean ([1]; 3.7 µM): 111.5 % change from baseline
Peak width - 3D Mean ([1]; 3.7 µM): 7.4 % change from baseline
Peak-to-peak interval - 3D Mean ([1]; 3.7 µM): 2.9 % change from baseline
Area under the curve - 3D Mean ([1]; 11.11 µM): 177.0 % change from baseline
Peak Number—3D Mean ([1]; 11.11 µM): −11.8 % change from baseline
Peak amplitude - 3D Mean ([1]; 11.11 µM): 110.4 % change from baseline
Peak width - 3D Mean ([1]; 11.11 µM): 29.4 % change from baseline
Peak-to-peak interval - 3D Mean ([1]; 11.11 µM): 8.2 % change from baseline
Area under the curve - 3D Mean ([1]; 33.33 µM): 199.3 % change from baseline
Peak Number—3D Mean ([1]; 33.33 µM): −14.6 % change from baseline
Peak amplitude - 3D Mean ([1]; 33.33 µM): 91.2 % change from baseline
Peak width - 3D Mean ([1]; 33.33 µM): 47.9 % change from baseline
Peak-to-peak interval - 3D Mean ([1]; 33.33 µM): 17.7 % change from baseline
Area under the curve - 3D Mean ([1]; 100 µM): 198.2 % change from baseline
Peak Number—3D Mean ([1]; 100 µM): −9.9 % change from baseline
Peak amplitude - 3D Mean ([1]; 100 µM): 88.4 % change from baseline
Peak width - 3D Mean ([1]; 100 µM): 50.5 % change from baseline
Peak-to-peak interval - 3D Mean ([1]; 100 µM): 6.6 % change from baseline
Free Cmax [2, 4]: 4000 to 15000 nM
Free Cmax [2, 5]: 4000 to 15000 nM
effect on peak number / Ca2+ neuronal oscillations, in words ([3]; 2D format): significantly reduced peak number
activation at 3.7 µM [3, 6]: 33.2%
activation at 3.7 µM ([3]; read-out: Peak Number—2D Mean): -33.5%
activation at 3.7 µM [3, 7]: 7.3%
activation at 3.7 µM ([3]; read-out: Peak width - 2D Mean): 27.2%
activation at 3.7 µM [3, 8]: 46.3%
activation at 11.11 µM [3, 6]: 27.5%
activation at 11.11 µM ([3]; read-out: Peak Number—2D Mean): -15.2%
activation at 11.11 µM [3, 7]: -0.2%
activation at 11.11 µM ([3]; read-out: Peak width - 2D Mean): 31.5%
activation at 11.11 µM [3, 8]: 22.2%
activation at 33.33 µM [3, 6]: 15.8%
activation at 33.33 µM ([3]; read-out: Peak Number—2D Mean): -51.2%
activation at 33.33 µM [3, 7]: -3%
activation at 33.33 µM ([3]; read-out: Peak width - 2D Mean): 17%
activation at 33.33 µM [3, 8]: 89%
activation at 100 µM [3, 6]: 33.3%
activation at 100 µM ([3]; read-out: Peak Number—2D Mean): -27.5%
activation at 100 µM [3, 7]: 0.2%
activation at 100 µM ([3]; read-out: Peak width - 2D Mean): 34.7%
activation at 100 µM [3, 8]: 44.5%

CN(C)CCCN1c2ccccc2Sc2ccc(Cl)cc21 [Chlorpromazine]
Area under the curve - 3D Mean ([1]; 0.11 µM): 128.5 % change from baseline
Peak Number—3D Mean ([1]; 0.11 µM): 6.5 % change from baseline
Peak amplitude - 3D Mean ([1]; 0.11 µM): 96.7 % change from baseline
Peak width - 3D Mean ([1]; 0.11 µM): 13.3 % change from baseline
Peak-to-peak interval - 3D Mean ([1]; 0.11 µM): 10.0 % change from baseline
Area under the curve - 3D Mean ([1]; 0.33 µM): 129.9 % change from baseline
Peak Number—3D Mean ([1]; 0.33 µM): −2.6 % change from baseline
Peak amplitude - 3D Mean ([1]; 0.33 µM): 100.7 % change from baseline
Peak width - 3D Mean ([1]; 0.33 µM): 13.6 % change from baseline
Peak-to-peak interval - 3D Mean ([1]; 0.33 µM): 12.5 % change from baseline
Area under the curve - 3D Mean ([1]; 1 µM): 132.1 % change from baseline
Peak Number—3D Mean ([1]; 1 µM): 11.5 % change from baseline
Peak amplitude - 3D Mean ([1]; 1 µM): 102.4 % change from baseline
Peak width - 3D Mean ([1]; 1 µM): 13.0 % change from baseline
Peak-to-peak interval - 3D Mean ([1]; 1 µM): −9.6 % change from baseline
Area under the curve - 3D Mean ([1]; 3 µM): 131.9 % change from baseline
Peak Number—3D Mean ([1]; 3 µM): −4.8 % change from baseline
Peak amplitude - 3D Mean ([1]; 3 µM): 98.4 % change from baseline
Peak width - 3D Mean ([1]; 3 µM): 16.6 % change from baseline
Peak-to-peak interval - 3D Mean ([1]; 3 µM): 6.0 % change from baseline
Free Cmax [2, 4]: 50 to 150 nM
Free Cmax [2, 5]: 50 to 150 nM
activation at 0.11 µM [3, 6]: 26.5%
activation at 0.11 µM ([3]; read-out: Peak Number—2D Mean): -27%
activation at 0.11 µM [3, 7]: 8.7%
activation at 0.11 µM ([3]; read-out: Peak width - 2D Mean): 18%
activation at 0.11 µM [3, 8]: 47.2%
activation at 0.33 µM [3, 6]: 36%
activation at 0.33 µM ([3]; read-out: Peak Number—2D Mean): -29.5%
activation at 0.33 µM [3, 7]: 4%
activation at 0.33 µM ([3]; read-out: Peak width - 2D Mean): 38.5%
activation at 0.33 µM [3, 8]: 48%
activation at 1 µM [3, 6]: 10.7%
activation at 1 µM ([3]; read-out: Peak Number—2D Mean): -59.8%
activation at 1 µM [3, 7]: -4.3%
activation at 1 µM ([3]; read-out: Peak width - 2D Mean): 13.8%
activation at 1 µM [3, 8]: 151%
activation at 3 µM [3, 6]: -100%
activation at 3 µM ([3]; read-out: Peak Number—2D Mean): -100%
activation at 3 µM [3, 7]: -100%
activation at 3 µM ([3]; read-out: Peak width - 2D Mean): -100%
activation at 3 µM [3, 8]: -100%
